According to patent US20160038551A1, “STABILIZED MESEMBRINE COMPOSITIONS” (BOTANICAL RESOURCE HOLDINGS PROPRIETARY LIMITED, priority 2013, published 2016):

System: serotonin-uptake
Test: Serotonin-uptake inhibition studies
Details: extensive studies conducted in respect of the present invention; no details

COc1ccc([C@@]23CCC(=O)C[C@@H]2N(C)CC3)cc1OC [mesembrine]
serotonin-uptake inhibition properties: do not show serotonin-uptake inhibition properties
